From patent publication US10047104B2, “Bicyclic heterocyclyl derivatives as IRAK4 inhibitors” (Aurigene Discovery Technologies Limited, priority 2014, dated 2018)
Structures can show the parent of a compound that is named as a salt.

Target: T1, recombinant IRAK-4 kinase (Homo sapiens, UniProt Q9NWZ3)
T1 construct: purchased Millipore, USA
T1 sequence (Q9NWZ3 1-460): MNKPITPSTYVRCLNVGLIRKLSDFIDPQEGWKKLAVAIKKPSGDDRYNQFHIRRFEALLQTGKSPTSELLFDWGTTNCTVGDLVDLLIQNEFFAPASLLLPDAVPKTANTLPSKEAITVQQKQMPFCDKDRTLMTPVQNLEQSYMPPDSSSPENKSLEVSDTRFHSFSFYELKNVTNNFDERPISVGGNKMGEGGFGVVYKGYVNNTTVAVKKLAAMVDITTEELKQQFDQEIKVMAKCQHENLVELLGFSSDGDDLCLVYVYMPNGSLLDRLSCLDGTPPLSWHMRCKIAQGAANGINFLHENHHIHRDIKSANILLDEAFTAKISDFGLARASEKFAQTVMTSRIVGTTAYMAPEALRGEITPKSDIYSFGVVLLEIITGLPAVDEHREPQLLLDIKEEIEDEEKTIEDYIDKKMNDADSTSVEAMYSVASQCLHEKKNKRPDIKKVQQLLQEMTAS
Test: IRAK-4 Biochemical Assay (TR-FRET)
Settings: 5 ng IRAK-4 kinase, 100 nM Biotin Histone H3, 20 μM ATP, 30 minutes pre-incubation, read-out: IC50 values for IRAK4 activity
How it was run: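 Recombinant IRAK-4 (5 ng) pre-incubated with compound 30 min at room temperature in Tris-HCl pH 7.5 with MgCl2/MnCl2, then 100 nM biotin-histone H3 and 20 μM ATP added for 30 min. Stopped with EDTA; phospho-Ser10 read by TR-FRET (Eu-antibody/APC-streptavidin).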

Structure (SMILES) | IC50 [nM]
COc1cc(-c2nc(C(=O)Nc3cc4sc(N5CCOCC5)nc4nc3N3CCCCC3)co2)ccn1 [Example 58, 2-(2-methoxypyridin-4-yl)-N-(2-morpholino-5-(piperidin-1-yl)thiazolo[4,5-b]pyridin-6-yl)oxazole-4-carboxamide] | < 50
Cc1cc(-c2ccc(C(=O)Nc3cc4sc(N5CCOCC5)nc4nc3N3CCC(F)CC3)o2)ccn1 [Example 97, N-(5-(4-fluoropiperidin-1-yl)-2-morpholinothiazolo[4,5-b]pyridin-6-yl)-5-(2-methylpyridin-4-yl)furan-2-carboxamide] | < 50
O=C(Nc1cc2sc(N3CCOCC3)nc2nc1N1CCCCC1)c1coc(-c2cccnc2O)n1 [Example 55, 2-(2-hydroxypyridin-3-yl)-N-(2-morpholino-5-(piperidin-1-yl)thiazolo[4,5-b]pyridin-6-yl)oxazole-4-carboxamide] | < 50
Cc1cc(-c2nc(C(=O)Nc3cc4sc(N5CCOCC5)nc4nc3-c3cccc(F)c3)co2)ccn1 [Example 100, N-(5-(3-fluorophenyl)-2-morpholinothiazolo[4,5-b]pyridin-6-yl)-2-(2-methylpyridin-4-yl)oxazole-4-carboxamide] | < 50
Cc1cc(-c2nc(C(=O)Nc3cc4sc(N5CCOCC5)nc4nc3-c3cn[nH]c3)co2)ccn1 [Example 121, 2-(2-methylpyridin-4-yl)-N-(2-morpholino-5-(1H-pyrazol-4-yl)thiazolo[4,5-b]pyridin-6-yl)oxazole-4-carboxamide] | < 50
Cc1ccc(-c2nc(C(=O)Nc3cc4oc(N5CCOCC5)nc4nc3N3CCCCC3)co2)cn1 [Example 35, 2-(6-methylpyridin-3-yl)-N-(2-morpholino-5-(piperidin-1-yl)oxazolo[4,5-b]pyridin-6-yl)oxazole-4-carboxamide] | < 50
Cc1cc(-c2nc(C(=O)Nc3cc4oc(N5CCCC5)nc4nc3N3CCCCC3)co2)ccn1 [Example 48, 2-(2-methylpyridin-4-yl)-N-(5-(piperidin-1-yl)-2-(pyrrolidin-1-yl)oxazolo[4,5-b]pyridin-6-yl)oxazole-4-carboxamide hydrochloride] | > 100
Cc1cc(-c2nc(C(=O)Nc3cc4sc(N5CCOCC5)nc4nc3-c3ccc(F)nc3)co2)ccn1 [Example 122, N-(5-(6-fluoropyridin-3-yl)-2-morpholinothiazolo[4,5-b]pyridin-6-yl)-2-(2-methylpyridin-4-yl)oxazole-4-carboxamide] | < 50
N[C@H]1CCN(c2cccc(C(=O)Nc3cc4sc(N5CCOCC5)nc4nc3N3CCCCC3)n2)C1 [Example 62, (S)-6-(3-aminopyrrolidin-1-yl)-N-(2-morpholino-5-(piperidin-1-yl)thiazolo[4,5-b]pyridin-6-yl)picolinamide] | < 50
C[C@H](O)Cn1cc(-c2nc(C(=O)Nc3cc4sc(N5CCOCC5)nc4nc3C3CC3)co2)cn1 [Example 75, (S)—N-(5-cyclopropyl-2-morpholinothiazolo[4,5-b]pyridin-6-yl)-2-(1-(2-hydroxypropyl)-1H-pyrazol-4-yl)oxazole-4-carboxamide] | < 50
Nc1cc(-c2nc(C(=O)Nc3cc4sc(N5CCOCC5)nc4nc3N3CCC(O)CC3)co2)ccn1 [Example 130, 2-(2-aminopyridin-4-yl)-N-(5-(4-hydroxypiperidin-1-yl)-2-morpholinothiazolo[4,5-b]pyridin-6-yl)oxazole-4-carboxamide hydrochloride] | < 50
N[C@H]1CCN(c2nc(C(=O)Nc3cc4sc(N5CCOCC5)nc4nc3C3CC3)co2)C1 [Example 68, (S)-2-(3-aminopyrrolidin-1-yl)-N-(5-cyclopropyl-2-morpholinothiazolo[4,5-b]pyridin-6-yl)oxazole-4-carboxamide] | 50 to 100
